# System: adjuvant-induced arthritis
# Conditions: high doses: naproxen 10 mg/kg, conjugate 18 mg/kg, oral daily on days 5-8 and 11-14; day 15
smiles,measurement,value
"COc1ccc2cc([C@H](C)C(=O)O)ccc2c1 [Naproxen, (S)-(+)-methoxy-α-methyl-2-naphthaleneacetic acid]",Reduction of swelling compared to control,approximately 70%

# Source: patent publication US6710086B1, “Protected forms of pharmacologically active agents and uses therefor” (Medinox, Inc., priority 2000, dated 2004)
